The results in this text go back to PubChem BioAssay (NCI).

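Each compound was tested at five concentrations against cells in 96-well plates for 48 hours. At the TGI there is no net growth.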

Test systems include EKVX NSCLC; MDA-MB-435; SF-268 CNS; OVCAR-5 ovarian; UACC-62 melanoma; COLO 205 colon; NCI-H522 lung; SK-MEL-5 melanoma; SR leukemia; SK-OV-3 ovarian; HL-60(TB) leukemia; U251 CNS; TK-10 renal; IGROV1 ovarian; HCC-2998 colon; SK-MEL-28 melanoma; CCRF-CEM leukemia; MALME-3M melanoma; SNB-75 CNS.
Holding throughout (assay): NCI anticancer screen, dose series, 48 h

For the compound `CC(CC[C@@]1(C)C(=O)CCC2O[C@]21C)[C@H]1C[C@@H](c2ccoc2)OC1=O` (some centres undefined), the TGI was greater than 100 µM with EKVX NSCLC; greater than 100 µM in the test on MDA-MB-435; 94.6 µM in the test with SF-268 CNS; greater than 100 µM in the test on OVCAR-5 ovarian; greater than 100 µM in the test with UACC-62 melanoma; 52.1 µM in the test on COLO 205 colon. The TGI with NCI-H522 lung was 22.2 µM; in the test on SK-MEL-5 melanoma, greater than 100 µM; in the test on SR leukemia, greater than 100 µM; in the test with SK-OV-3 ovarian, greater than 100 µM; in the test on HL-60(TB) leukemia, 47.6 µM; with U251 CNS it was greater than 100 µM. Moreover, the TGI is 94.4 µM in the test with TK-10 renal; greater than 100 µM in the test with IGROV1 ovarian; greater than 100 µM in the test on HCC-2998 colon; 70.8 µM in the test on SK-MEL-28 melanoma; 61.3 µM with CCRF-CEM leukemia; 81.3 µM in the test on MALME-3M melanoma.

As to `CSc1cc(Cl)c(C)cc1S(=O)(=O)NC(=O)NNc1cccc(C(F)(F)F)n1`, the TGI in the test on EKVX NSCLC, with MDA-MB-435, in the test with SNB-75 CNS, in the test with SF-268 CNS, in the test on OVCAR-5 ovarian and in the test with COLO 205 colon was greater than 100 µM each time. Moreover, the TGI with NCI-H522 lung, in the test with SK-MEL-5 melanoma, in the test with SR leukemia, with SK-OV-3 ovarian, with U251 CNS and in the test with IGROV1 ovarian was greater than 100 µM in each case. Besides, the TGI with HCC-2998 colon, with SK-MEL-28 melanoma, in the test on CCRF-CEM leukemia and in the test with MALME-3M melanoma was greater than 100 µM in each case.

For `O=C(c1cccs1)N1CCc2ccccc2C1`, the TGI in the test on EKVX NSCLC, with MDA-MB-435, with SF-268 CNS, in the test with OVCAR-5 ovarian, with UACC-62 melanoma and in the test with COLO 205 colon was greater than 100 µM in each case. Also, the TGI in the test on NCI-H522 lung is greater than 100 µM; in the test on SK-MEL-5 melanoma, greater than 100 µM; with SR leukemia, greater than 100 µM; in the test with SK-OV-3 ovarian, greater than 100 µM; with HL-60(TB) leukemia, 76 µM; with U251 CNS it was greater than 100 µM. Besides, the TGI in the test with TK-10 renal, in the test on IGROV1 ovarian, with HCC-2998 colon, in the test on SK-MEL-28 melanoma, with CCRF-CEM leukemia and with MALME-3M melanoma was greater than 100 µM in each case.

As to `COC(=O)c1cc2c(cc1Cl)Sc1nnc(Nc3ccc(C)cc3)n1S2(=O)=O`, the TGI with EKVX NSCLC was 27.7 µM; with MDA-MB-435, 21.1 µM; with SF-268 CNS, 10.9 µM; in the test with OVCAR-5 ovarian, 39.8 µM; in the test on UACC-62 melanoma, 26 µM; in the test with COLO 205 colon, 17.9 µM. Besides, the TGI with NCI-H522 lung came out at 10.3 µM; in the test on SK-MEL-5 melanoma, 27.6 µM; in the test on SR leukemia, 6.2 µM; in the test with SK-OV-3 ovarian, 24.1 µM; in the test with HL-60(TB) leukemia, 13.8 µM; in the test with U251 CNS, 17 µM. Also, the TGI in the test with TK-10 renal was 27.7 µM; in the test with IGROV1 ovarian it was 7.75 µM; in the test on HCC-2998 colon, 17.5 µM; in the test on SK-MEL-28 melanoma, 21.8 µM; in the test with CCRF-CEM leukemia, 36.1 µM; with MALME-3M melanoma it was 26.3 µM.

Take `O=[N+]([O-])c1ccc(S(=O)(=O)n2c3ccc(Br)cc3c3nc4ccccc4nc32)cc1`: the TGI in the test with MDA-MB-435, with SNB-75 CNS, in the test on SF-268 CNS, in the test with OVCAR-5 ovarian, with UACC-62 melanoma and with COLO 205 colon was greater than 100 µM throughout. Further, the TGI in the test on NCI-H522 lung, in the test on SK-MEL-5 melanoma, in the test on SR leukemia, in the test on U251 CNS, in the test on TK-10 renal and with IGROV1 ovarian was greater than 100 µM throughout. The TGI in the test on HCC-2998 colon, in the test with SK-MEL-28 melanoma and in the test on CCRF-CEM leukemia was greater than 100 µM each time.

Turning to `Nc1nc(-c2ccccc2)cc(-c2ccc(OCc3ccccc3)cc2O)n1`, the TGI with EKVX NSCLC, in the test on MDA-MB-435, in the test with SNB-75 CNS, with SF-268 CNS, in the test with OVCAR-5 ovarian and in the test with UACC-62 melanoma was greater than 100 µM in each case. In addition, the TGI was greater than 100 µM in the test on COLO 205 colon; 90.7 µM in the test on NCI-H522 lung; 35.5 µM with SK-MEL-5 melanoma; greater than 100 µM with SR leukemia; greater than 100 µM with U251 CNS; 91 µM with TK-10 renal. The TGI in the test on IGROV1 ovarian, in the test with HCC-2998 colon, in the test on SK-MEL-28 melanoma, in the test on CCRF-CEM leukemia and in the test on MALME-3M melanoma was greater than 100 µM throughout.

For the compound `N#C[C@@H](c1ccccn1)c1ncccc1[N+](=O)[O-]`, the TGI with EKVX NSCLC, with MDA-MB-435, in the test with SNB-75 CNS, in the test with SF-268 CNS, in the test with OVCAR-5 ovarian and in the test on UACC-62 melanoma was greater than 100 µM throughout. Moreover, the TGI in the test on COLO 205 colon, in the test on NCI-H522 lung, in the test with SK-MEL-5 melanoma, in the test with SR leukemia, in the test on SK-OV-3 ovarian and in the test on U251 CNS was greater than 100 µM each time. The TGI in the test on IGROV1 ovarian, in the test on HCC-2998 colon, in the test with SK-MEL-28 melanoma, with CCRF-CEM leukemia and in the test on MALME-3M melanoma was greater than 100 µM throughout.
